Data taken from publication PMC8850660, “The P300 acetyltransferase inhibitor C646 promotes membrane translocation of insulin receptor protein substrate and interaction with the insulin receptor” (The Journal of Biological Chemistry, 2022).

Assays:
[1] = target: T1, IRβ (unphosphorylated beta subunit of insulin receptor) (Homo sapiens, UniProt P06213); assay: surface plasmon resonance (Biacore T200), IRβ immobilised on CM5; type: binding
T1 construct: gene INSR; beta subunit, commercial recombinant protein; unphosphorylated; immobilised on CM5 chip
T1 sequence (P06213 763-1382 limits assumed): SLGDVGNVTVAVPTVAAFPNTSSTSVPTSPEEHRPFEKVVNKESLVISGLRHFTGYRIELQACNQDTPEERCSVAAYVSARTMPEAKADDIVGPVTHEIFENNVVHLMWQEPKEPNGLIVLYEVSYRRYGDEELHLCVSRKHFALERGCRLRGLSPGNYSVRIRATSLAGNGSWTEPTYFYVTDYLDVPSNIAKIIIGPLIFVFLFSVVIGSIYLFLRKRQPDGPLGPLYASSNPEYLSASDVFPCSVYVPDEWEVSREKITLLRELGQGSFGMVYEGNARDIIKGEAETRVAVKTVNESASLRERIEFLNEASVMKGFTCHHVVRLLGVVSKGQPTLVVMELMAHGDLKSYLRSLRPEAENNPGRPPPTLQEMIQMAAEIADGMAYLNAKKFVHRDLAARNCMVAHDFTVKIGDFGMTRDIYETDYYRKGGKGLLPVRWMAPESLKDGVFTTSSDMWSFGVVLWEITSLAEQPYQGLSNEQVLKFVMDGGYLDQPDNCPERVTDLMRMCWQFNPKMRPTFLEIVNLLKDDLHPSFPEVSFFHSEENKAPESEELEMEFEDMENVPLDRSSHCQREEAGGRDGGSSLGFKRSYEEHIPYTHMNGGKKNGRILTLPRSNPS

[2] = target: T2, insulin receptor (InsR Kinase Assay) (Homo sapiens, UniProt P06213); assay: InsR kinase assay, ADP-Glo (ADP production); type: biochemical; conditions: activator; 50 μM ATP, substrate peptide, room temperature, 60 min
T2 construct: commercial kinase from InsR Kinase Assay (Promega)
T2 sequence (P06213 1011-1382 limits assumed): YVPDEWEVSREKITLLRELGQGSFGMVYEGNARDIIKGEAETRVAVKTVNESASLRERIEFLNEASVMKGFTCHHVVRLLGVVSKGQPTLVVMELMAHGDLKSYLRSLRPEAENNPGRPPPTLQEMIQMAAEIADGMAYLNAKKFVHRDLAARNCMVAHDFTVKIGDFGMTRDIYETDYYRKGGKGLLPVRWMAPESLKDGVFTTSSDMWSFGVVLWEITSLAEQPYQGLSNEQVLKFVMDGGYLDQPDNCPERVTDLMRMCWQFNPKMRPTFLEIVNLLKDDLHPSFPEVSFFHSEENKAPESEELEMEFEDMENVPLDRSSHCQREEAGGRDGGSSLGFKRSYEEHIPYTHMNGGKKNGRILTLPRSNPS

[3] = target: T2, insulin receptor (InsR Kinase Assay); assay: InsR kinase assay, ADP-Glo (ADP production); type: biochemical; conditions: 50 μM ATP, substrate peptide, room temperature; turnover to ADP only

Kd [1] [µM] | % increase of kinase activity at 100 nM [2] [%] | Compound | InsR kinase assay, ADP-Glo (ADP production) [3]
4.34 | 50 | CC1=NN(c2ccc(C(=O)O)cc2)C(=O)C1=Cc1ccc(-c2cc(C)c(C)cc2[N+](=O)[O-])o1 [C646] | –
– | – | Nc1ncnc2c1ncn2[C@@H]1O[C@H](COP(=O)(O)OP(=O)(O)OP(=O)(O)O)[C@@H](O)[C@H]1O [ATP] | found a linear curve of ADP production (consumption of ATP by insulin receptor)
